These results are taken from patent publication US12344578B2, “Salt forms of bempedoic acid and methods for using the same” (Esperion Therapeutics, Inc., priority 2019, dated 2025).

A short description of the data set: Thermogravimetric analysis (TGA), weight loss on heating. The class given is physicochemical. The protocol:
Thermogravimetric analysis (TGA) data for the crystalline form of the compound of formula (V) were collected using a TA Discovery 550 TGA instrument. The TGA instrument was calibrated using a nickel reference standard. Samples of the crystalline form of the compound of formula (V) were placed in open platinum sample pans and heated at a rate of 10° C./minute from about ambient temperature (˜25° C.) to about 315° C.
TGA data were collected using a TA Discovery 550 TGA instrument. The TGA instrument was calibrated using a nickel reference standard. Samples were placed in open platinum sample pans and heated at a rate of 10° C./minute from about ambient temperature (˜25° C.) to about 315° C.

Take `CC(C)(CCCCCC(O)CCCCCC(C)(C)C(=O)[O-])C(=O)[O-].[Ca+2]` [Crystalline Form A of the calcium salt]: the TGA weight loss entry (up to 62.8° C.) is reported as “Negligible weight loss”.

On to `CC(C)(CCCCCC(O)CCCCCC(C)(C)C(=O)[O-])C(=O)[O-].[Ca+2]` [Crystalline Form B of the calcium salt], for which, under “up to 86.9° C.”, the TGA weight loss was found to be 2.23%.

For the compound `CC(C)(CCCCCC(O)CCCCCC(C)(C)C(=O)O)C(=O)O` [8-hydroxy-2,2,14,14-tetramethylpentadecanedioic acid], for the setting “heated at 10° C./minute from ~25° C. to about 315° C.”, the “TGA weight loss prior to decomposition” value is given as “negligible weight loss”.
